Test results published in patent EP2796135A1, “Use of trifluoroacetic acid and salts thereof to treat hypercholesterolemia” (POLICHEM S.A., priority 2013, dated 2014).
Counter-ions that a name gives are not always drawn.

Tests used:
[1] = preliminary oral study with ascending dose levels in minipigs (Example 13); type: in vivo, Göttingen minipig; conditions: in vivo, minipig, read-out: maximum tolerated dose
Protocol: (§1) A preliminary oral study of the Calcium salt of trifluoroacetic acid was performed in minipigs. One male and one female Göttingen minipig were daily treated by oral route with ascending dose levels of Calcium salt of trifluoroacetic acid, as indicated below.
(§2) The oral solutions were prepared as for Example 1.

[2] = test system: total cholesterol; assay: as above; type: in vivo, Göttingen minipig; conditions: for decrease of total cholesterol: male
Protocol: as §1, §2

[3] = test system: total cholesterol; assay: preliminary intravenous study in dogs, daily administration for 14 days (Example 14); type: in vivo, Beagle dogs; conditions: for reduction in total cholesterol: end of the 14 days of treatment
Protocol: A preliminary intravenous study of the Calcium salt of trifluoroacetic acid was performed in Beagle dogs after daily administration.
Dogs (2 animals/sex/group) were treated by intravenous slow injection (2.5 mL/min) with 100 and 200 mg/kg for 14 consecutive days.
(§3) The intravenous solutions were prepared as for Example 9.

[4] = test system: total cholesterol; assay: intravenous study in dogs, daily administration for 4 weeks (Example 15); type: in vivo, Beagle dogs; conditions: for reduction in total cholesterol: intravenous, end of the 4 weeks of treatment
Protocol: An intravenous study of the Calcium salt of trifluoroacetic acid was performed in Beagle dogs after daily administration for 4 weeks.
Dogs (4 animals/sex/group) were treated by intravenous slow injection (2.5 mL/min) with 50, 100 and 200 mg/kg for 4 consecutive weeks.
as §3

[5] = ascending doses 50-1000 mg/kg/day
[6] = intravenous, 100 and 200 mg/kg, 14 consecutive days

O=C(O)C(F)(F)F [Calcium salt of trifluoroacetic acid, Calcium trifluoroacetate]
MTD [1]: ≥ 1000 mg/kg | changes in body weight, food consumption and water consumption [2, 5]: No changes of toxicological relevance | changes in hematology [2, 5]: No changes of note | mortality ([2]; ascending doses 50-1000 mg/kg/day, one male and one female minipig): No mortality occurred | decrease of total cholesterol ([2]; 150 mg/kg/day): 18% | decrease of total cholesterol ([2]; 200 mg/kg/day): 33% | decrease of total cholesterol ([2]; 300 mg/kg/day): 44% | decrease of total cholesterol ([2]; 600 mg/kg/day): 49% | decrease of total cholesterol ([2]; 1000 mg/kg/day): 56% | reduction in total cholesterol ([3]; females, intravenous, 100 mg/kg/day): 29% | reduction in total cholesterol ([3]; females, intravenous, 200 mg/kg/day): 16% | deaths ([3]; intravenous slow injection, 100 and 200 mg/kg, 14 consecutive days): No deaths occurred | differences in body weight, food consumption, physical examination and chemical chemistry, coagulation, organ weight [3, 6]: No significant differences | findings recorded in the study [3, 6]: limited to the site of injection | reduction in total cholesterol ([3]; males, intravenous, 100 mg/kg/day): 18% | reduction in total cholesterol ([3]; males, intravenous, 200 mg/kg/day): 21% | changes in body weight, food consumption and water consumption, hematological, chemical chemistry, fecal and urinalysis parameters ([4]; both sexes, intravenous, 50, 100 and 200 mg/kg, 4 weeks): No changes of toxicological relevance | reduction in total cholesterol ([4]; females, 50 mg/kg/day): 20% | reduction in total cholesterol ([4]; females, 100 mg/kg/day): 29% | reduction in total cholesterol ([4]; females, 200 mg/kg/day): 24% | deaths ([4]; intravenous slow injection, 50, 100 and 200 mg/kg, 4 consecutive weeks): No deaths occurred | organ weights ([4]; intravenous, 50, 100 and 200 mg/kg, 4 weeks): unaffected | findings at the site of injection and electrographic alterations ([4]; intravenous, 50, 100 and 200 mg/kg, 4 weeks, findings at the site of injection minimal to moderate): dose dependent and reversible | reduction in total cholesterol ([4]; males, 50 mg/kg/day): 9% | reduction in total cholesterol ([4]; males, 100 mg/kg/day): 21% | reduction in total cholesterol ([4]; males, 200 mg/kg/day): 15%
